Reference: patent US5601806A, “Methods for scavenging active oxygen compounds and preventing damage from ultra violet B rays using taurine analogues” (Sogo Pharmaceutical Company Limited, priority 1991, dated 1997)

Legend:
[1] = Influence of externally applied thiotaurine on UVB rays (erythema, SPF); assay type: in vivo, male Hartley guinea pigs
Method: Thiotaurine was added to a base cream of the composition indicated in Table 5, at concentrations of 5.0% (w/w) and 7.5% (w/w), respectively.
Experimental method: In this experiment, male Hartley guinea pigs of body weight 230-250 g were used. The back, abdomen and side hair of the guinea pigs was first roughly removed with hair clippers, after which the hair was completely removed with care using a Brown electric shaver. On the morning of the next day, the hair was again removed, the body weights measured, and the groups divided. The UVB radiation was applied in 10 stages of 0.075, 0.1, 0.15, 0.2, 0.3, 0.4, 0.5, 0.6, 0.7, and 0.8. Five minutes prior to irradiation, the base cream was applied to the control area, and the thiotaurine-containing cream preparations were applied to the test area. Then observations were made 2, 4, 6, 8, and 24 hours later to determine the presence of erythema, visually.
1; Difficult to determine presence or absence of erythema
2; Erythema clearly present but edges unclear
3; Erythema clearly present and edges clear

[2] = H2 O2 scavenging function; assay type: biochemical
Method: In a quartz cell were placed 1 mM of thiotaurine and […] of H2 O2, and the change in thiotaurine was measured by HPLC while irradiating with light.

[3] = Effect on alloxan diabetes; assay type: in vivo, Wistar Imamichi rats; details: 500 mg/kg oral once a day, 2 weeks
Method: Thiotaurine was orally administered in an amount of 500 mg/kg once a day to Wistar Imamichi rats, for a period of 2 weeks. Three days prior to the last administration of the medicine feeding of the rats was stopped for 16 hours, and alloxan dissolved in chilled physiological saline was intravenously injected at an amount of 75 mg/kg. One hour after the last administration of the medicine, the rats were killed, their blood was obtained, and a measurement was made of the triglycerides and blood sugar in the blood, using the enzyme method.

bacteria = assay type: cell-based; details: coexistence or non-coexistence with S9Mix
[4] = set-up: species or system rabbits; details: rabbit, in vivo
Method: (§1) In addition, the result was determined to be negative in both a primary skin irritation test and an eye irritation test using rabbits.

[5] = Preventing effect on photo-oxidation of methionine by hydroxyl radical; assay type: biochemical; details: 1 mM thiotaurine, 1 mM methionine, riboflavin, NADH, Fe (II) EDTA, UVA 370 nm
Method: In a quartz cell was placed 1 mM of methionine, riboflavin, NADH and Fe (II) EDTA, and super high pressure mercury lamp rays (UVA 370 nm) were irradiated thereto, thus presenting a control. Next, 1 mM of thiotaurine was added to the same system mentioned above and the reaction was initiated by light irradiation as before, while the two reactions were sequentially followed by HPLC and finally compared.
These systems, to which the Fe (II) chelate compound and electron donor, NADH, were added in the presence of riboflavin, produced the HO.

SOD = SOD (Bos taurus, UniProt P00442); experiment: SOD activating function; assay type: biochemical; details: read-out: SOD activating function (SOD activation rate)
Sequence of SOD (P00442 whole entry): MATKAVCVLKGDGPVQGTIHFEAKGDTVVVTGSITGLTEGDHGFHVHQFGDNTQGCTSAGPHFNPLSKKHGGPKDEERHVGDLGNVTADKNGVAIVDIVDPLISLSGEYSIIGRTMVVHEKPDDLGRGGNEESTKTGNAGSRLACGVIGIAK
Method: Next, a measurement was made of the SOD activating function.
Method of measurement of SOD activating function
Test Comp. 0.1 0.1 -- --
Preincubate 25° C., 10 min.
UVB radiation, 6.0 mw/cm^2, 5 min. (1.8 J/cm^2)
(1) System for observing whether the consumption of superoxides by SOD is
further increased with the test composition.
(3) System for inhibiting XOD reaction with SOD. XOD reaction was 20%
(4) System for a complete, uninhibited XOD reaction.
The SOD activation rates of the test compositions were calculated using the equation listed as Equation 1 below, and the results shown in Table 3 were obtained. [formula]

[6] = Reactivity with singlet oxygen, riboflavin (Rf)/h.nu.-system; assay type: biochemical; details: for thiotaurine reacted with ^1 O2 (decomposition): absence of NaN3, pH 7.8
Method: Fourteen milligrams of thiotaurine and 1.5 mg of riboflavin (Rf) were dissolved in 50 ml of a wing buffer solution (pH 7.8), after which light irradiation (FL20SBRF Toshiba, UVA 0.1 mW/cm^2, UVB 0.1 mW/cm^2, visible light 0.4 mW/cm^2) was initiated in the presence and in the absence of 34 mg of sodium azide (NaN3). After continuously reacting the product from the reactant solution with dansyl chloride, a fluorescent reagent, high-performance liquid chromatography was used for separation and analysis.
The conditions for the high-performance liquid chromatography were as listed below.
Mobile phase: 0.1M phosphate buffer solution: THF ([…]): acetonitrile=670:40:350
The results obtained are shown in FIG. 1 as percentages (%) for the proportions of thiotaurine, hypotaurine and taurine at each hour shown.
It is assumed that in the Rf/h.nu.-system ^1 O2 is produced according to the formula listed below as Chemical formula 7.

[7] = Primary skin irritation test; assay type: in vivo; details: rabbits
Method: as §1

[8] = Effect on hydrocortisone induced chick embryo cataract; assay type: in vivo, White leghorn chick embryos; details: HC 0.12 mg/egg
Method: White leghorn chick embryos were incubated in an incubator at a temperature of 37° C. and a humidity of approximately 70%. Then a solution of 0.12 mg of hydrocortisone succinate (HC) in 0.2 ml of purified water was administered through the air chambers of the eggs of the control group and the test group on the 15th day of incubation. Thiotaurine was then given to the test group 2 hours, or 2 and 5 hours, after HC administration.
The lenses were removed 8 hours after HC administration, and the presence of cataracts was judged according to the criteria listed in Table 8, using the method of Nishikuni, et. al. (Investigative Opthamology and Visual Science, 25, p. 1051, 1984).
I. Lens was clear and indistinguishable from control.
IV: Pinhole-sized clear area in an opaque nucleus.

[9] = alloxan 75 mg/kg i.v., P < 0.05 vs control group

With `NCCS(=O)(O)=S` [thiotaurine, Aminoethyl thiosulfonate] the SPF value ([1]; 5% (w/w) cream, 2 hr post-irradiation) was 3.6, the SPF value ([1]; 5% (w/w) cream, 4 hr post-irradiation) was 3.6 and the SPF value ([1]; 5% (w/w) cream, 6 hr post-irradiation) was 3.8. For the same molecule, the SPF value ([1]; 5% (w/w) cream, 8 hr post-irradiation) was 4.1, the SPF value ([1]; 5% (w/w) cream, 24 hr post-irradiation) was 5.0 and the SPF value ([1]; 7.5% (w/w) cream, 2 hr post-irradiation) was 4.4. The SPF value ([1]; 7.5% (w/w) cream, 4 hr post-irradiation) was 4.3, the SPF value ([1]; 7.5% (w/w) cream, 6 hr post-irradiation) was 4.3 and the SPF value ([1]; 7.5% (w/w) cream, 8 hr post-irradiation) was 4.3. For the same molecule, the SPF value ([1]; 7.5% (w/w) cream, 24 hr post-irradiation) was 5.7, the “oxidation of thiotaurine to taurine and hypotaurine with H2 O2, time” value ([2]; light irradiation, 1 mM thiotaurine) was “about 3 hours” and the “reaction with H2 O2” value ([2]; no light irradiation) was “did not react at all”. For the same molecule, the “increase of glucose suppressed to, compared with control” value [3] was 65%, the “increase of triglycerides suppressed to, compared with control” value [3] was 70% and the Blood sugar [3, 9] was 769.1 ± 120.3 mg/dL. For the same molecule, the Triglyceride [3, 9] was 363.8 ± 38.2 mg/dL, the “Blood sugar relative to control group (100)” value ([3]; control = 100) was 65 and the “Triglyceride relative to control group (100)” value ([3]; control = 100) was 70. For the same molecule, the “mutagenicity (Ames Test)” value (bacteria) was “no mutagenecity was observed”, the eye irritation [4] was “negative” and the “inhibition of methionine oxidation with HO.” value [5] was “inhibits the methionine oxidation with HO., and has a scavenging effect against hydroxy radicals”. It also gave an activation at 10000 µM (SOD; 10^-2 M/reaction solution) of 65.8%, an activation at 1000 µM (SOD; 10^-3 M/reaction solution) of 32.1% and an activation at 100 µM (SOD; 10^-4 M/reaction solution) of 29.6%. For the same molecule, the activation at 10 µM (SOD; 10^-5 M/reaction solution) was 14.3%, the activation at 1 µM (SOD; 10^-6 M/reaction solution) was 1.6% and the “thiotaurine reacted with ^1 O2 (decomposition)” value ([6]; 2 hours) was 40%. The “thiotaurine reacted with ^1 O2 (decomposition)” value ([6]; 6 hours) was 90%, the thiotaurine remaining ([6]; 6 hours, presence of NaN3 (^1 O2 quencher), pH 7.8) was “approximately 85%” and the primary skin irritation [7] was “negative”. The “Determination: lenses of grade II (faint opaque ring)” value (from here on “Determination … (faint opaque ring)”) ([8]; 0.5 mg × 1 time/egg) was 6/8, the “Determination: lenses of grade III (distinct opaque ring)” value ([8]; 0.5 mg × 1 time/egg) was 2/8 and the “Determination: lenses of grade I (clear)” value ([8]; 1.0 mg × 1 time/egg) was 2/8. For the same molecule, the “Determination … (faint opaque ring)” value ([8]; 1.0 mg × 1 time/egg) was 2/8, the “Determination: lenses of grade III (distinct opaque ring)” value ([8]; 1.0 mg × 1 time/egg) was 4/8 and the “Determination: lenses of grade I (clear)” value ([8]; 1.0 mg × 2 times/egg) was 4/8. The “Determination … (faint opaque ring)” value ([8]; 1.0 mg × 2 times/egg) was 4/8, the “Determination: lenses of grade I (clear)” value ([8]; 2.0 mg × 2 times/egg) was 4/8 and the “Determination … (faint opaque ring)” value ([8]; 2.0 mg × 2 times/egg) was 4/8.
